Test system: post-menopausal women
Assay: Hot Flush Weekly Weighted Score, dose-finding study
Assay type: in vivo
Description: Further, the terms “Hot Flush Weekly Weighted Score”, as used herein, corresponds to a score taking into account frequency and severity which is calculated by using the severity score (as calculated above): [(1× No. of mild VMS)+(2× No. of moderate VMS)+(3× No. of severe VMS)] during a 7 day period.
Such a weighted score was for example used by Notelovitz et al. (“Initial 17β-Estradiol Dose for Treating Vasomotor Symptoms”; Obstetrics and Gynaecology, Vol. 95(5), May 2000, p. 726-731). This score was used to generate the data included in Example 1 further below, under section A. c) “Hot Flush Weekly Weighted Score”.

C[C@]12CC[C@@H]3c4ccc(O)cc4CC[C@H]3[C@@H]1[C@@H](O)[C@@H](O)[C@@H]2O [E4, 1,3,5 (10)-estratrien-3,15alpha,16alpha,17beta-tetrol]
LS adjusted mean change from baseline in Hot Flush Weekly Weighted Score (2.5 mg E4, week 4): −75.37 | LS adjusted mean change from baseline in Hot Flush Weekly Weighted Score (2.5 mg E4, week 12): −89.86 | Mean change from baseline in Hot Flush Weekly Weighted Score (2.5 mg E4 QD per os, week 0): 2.4151 | Mean change from baseline in Hot Flush Weekly Weighted Score (2.5 mg E4 QD per os, week 1): −40.805 | Relative change (% from baseline) in Hot Flush Weekly Weighted Score, mean (2.5 mg E4 QD per os, week 1): −22% | Mean change from baseline in Hot Flush Weekly Weighted Score (2.5 mg E4 QD per os, week 2): −58.6163 | Relative change (% from baseline) in Hot Flush Weekly Weighted Score, mean (2.5 mg E4 QD per os, week 2): −32% | Mean change from baseline in Hot Flush Weekly Weighted Score (2.5 mg E4 QD per os, week 3): −74.8798 | Relative change (% from baseline) in Hot Flush Weekly Weighted Score, mean (2.5 mg E4 QD per os, week 3): −43% | Mean change from baseline in Hot Flush Weekly Weighted Score (2.5 mg E4 QD per os, week 4): −82.75 | Relative change (% from baseline) in Hot Flush Weekly Weighted Score, mean (2.5 mg E4 QD per os, week 4): −47% | Mean change from baseline in Hot Flush Weekly Weighted Score (2.5 mg E4 QD per os, week 5): −84.6062 | Relative change (% from baseline) in Hot Flush Weekly Weighted Score, mean (2.5 mg E4 QD per os, week 5): −48% | Mean change from baseline in Hot Flush Weekly Weighted Score (2.5 mg E4 QD per os, week 6): −89.9842 | Relative change (% from baseline) in Hot Flush Weekly Weighted Score, mean (2.5 mg E4 QD per os, week 6): −51% | Mean change from baseline in Hot Flush Weekly Weighted Score (2.5 mg E4 QD per os, week 7): −94.2468 | Relative change (% from baseline) in Hot Flush Weekly Weighted Score, mean (2.5 mg E4 QD per os, week 7): −53% | Mean change from baseline in Hot Flush Weekly Weighted Score (2.5 mg E4 QD per os, week 8): −97.1084 | Relative change (% from baseline) in Hot Flush Weekly Weighted Score, mean (2.5 mg E4 QD per os, week 8): −55% | Mean change from baseline in Hot Flush Weekly Weighted Score (2.5 mg E4 QD per os, week 9): −101.429 | Relative change (% from baseline) in Hot Flush Weekly Weighted Score, mean (2.5 mg E4 QD per os, week 9): −57% | Mean change from baseline in Hot Flush Weekly Weighted Score (2.5 mg E4 QD per os, week 10): −100.18 | Relative change (% from baseline) in Hot Flush Weekly Weighted Score, mean (2.5 mg E4 QD per os, week 10): −57% | Mean change from baseline in Hot Flush Weekly Weighted Score (2.5 mg E4 QD per os, week 11): −97.6016 | Relative change (% from baseline) in Hot Flush Weekly Weighted Score, mean (2.5 mg E4 QD per os, week 11): −56% | Mean change from baseline in Hot Flush Weekly Weighted Score (2.5 mg E4 QD per os, week 12): −98.5424 | Relative change (% from baseline) in Hot Flush Weekly Weighted Score, mean (2.5 mg E4 QD per os, week 12): −57% | Difference with placebo, LS adjusted mean, absolute change in Hot Flush Weekly Weighted Score (2.5 mg E4 vs placebo, week 4): 2.897 | Difference with placebo, LS adjusted mean, absolute change in Hot Flush Weekly Weighted Score (2.5 mg E4 vs placebo, week 12): 14.83 | Differences with placebo, relative change in weekly weighted score, p_value (2.5 mg vs 0 mg, week 4): 1.0000 | Differences with placebo, relative change in weekly weighted score, p_value (2.5 mg vs 0 mg, week 12): 0.6744 | Relative change (% from baseline) in weekly weighted score, LS adjusted mean (2.5 mg, Week 12): −0.5795 | Relative change (% from baseline) in weekly weighted score, LS adjusted mean (2.5 mg, week 4): −0.474 | LS adjusted mean change from baseline in Hot Flush Weekly Weighted Score (5 mg E4, week 4): −66.88 | LS adjusted mean change from baseline in Hot Flush Weekly Weighted Score (5 mg E4, week 12): −95.92 | Mean change from baseline in Hot Flush Weekly Weighted Score (5 mg E4 QD per os, week 0): 1.8297 | Mean change from baseline in Hot Flush Weekly Weighted Score (5 mg E4 QD per os, week 1): −33.7092 | Relative change (% from baseline) in Hot Flush Weekly Weighted Score, mean (5 mg E4 QD per os, week 1): −22% | Mean change from baseline in Hot Flush Weekly Weighted Score (5 mg E4 QD per os, week 2): −49.1319 | Relative change (% from baseline) in Hot Flush Weekly Weighted Score, mean (5 mg E4 QD per os, week 2): −32% | Mean change from baseline in Hot Flush Weekly Weighted Score (5 mg E4 QD per os, week 3): −56.9697 | Relative change (% from baseline) in Hot Flush Weekly Weighted Score, mean (5 mg E4 QD per os, week 3): −37% | Mean change from baseline in Hot Flush Weekly Weighted Score (5 mg E4 QD per os, week 4): −64.8344 | Relative change (% from baseline) in Hot Flush Weekly Weighted Score, mean (5 mg E4 QD per os, week 4): −43% | Mean change from baseline in Hot Flush Weekly Weighted Score (5 mg E4 QD per os, week 5): −71.6181 | Relative change (% from baseline) in Hot Flush Weekly Weighted Score, mean (5 mg E4 QD per os, week 5): −46% | Mean change from baseline in Hot Flush Weekly Weighted Score (5 mg E4 QD per os, week 6): −88.2337 | Relative change (% from baseline) in Hot Flush Weekly Weighted Score, mean (5 mg E4 QD per os, week 6): −56% | Mean change from baseline in Hot Flush Weekly Weighted Score (5 mg E4 QD per os, week 7): −88.2989 | Relative change (% from baseline) in Hot Flush Weekly Weighted Score, mean (5 mg E4 QD per os, week 7): −56% | Mean change from baseline in Hot Flush Weekly Weighted Score (5 mg E4 QD per os, week 8): −89.2039 | Relative change (% from baseline) in Hot Flush Weekly Weighted Score, mean (5 mg E4 QD per os, week 8): −56% | Mean change from baseline in Hot Flush Weekly Weighted Score (5 mg E4 QD per os, week 9): −90.923 | Relative change (% from baseline) in Hot Flush Weekly Weighted Score, mean (5 mg E4 QD per os, week 9): −58% | Mean change from baseline in Hot Flush Weekly Weighted Score (5 mg E4 QD per os, week 10): −91.4798 | Relative change (% from baseline) in Hot Flush Weekly Weighted Score, mean (5 mg E4 QD per os, week 10): −59% | Mean change from baseline in Hot Flush Weekly Weighted Score (5 mg E4 QD per os, week 11): −95.8365 | Relative change (% from baseline) in Hot Flush Weekly Weighted Score, mean (5 mg E4 QD per os, week 11): −61% | Mean change from baseline in Hot Flush Weekly Weighted Score (5 mg E4 QD per os, week 12): −93.5117 | Relative change (% from baseline) in Hot Flush Weekly Weighted Score, mean (5 mg E4 QD per os, week 12): −60% | Difference with placebo, LS adjusted mean, absolute change in Hot Flush Weekly Weighted Score (5 mg E4 vs placebo, week 4): 11.39 | Difference with placebo, LS adjusted mean, absolute change in Hot Flush Weekly Weighted Score (5 mg E4 vs placebo, week 12): 8.767 | Differences with placebo, relative change in weekly weighted score, p_value (5.0 mg vs 0 mg, week 4): 0.8833 | Differences with placebo, relative change in weekly weighted score, p_value (5.0 mg vs 0 mg, week 12): 0.8871 | Relative change (% from baseline) in weekly weighted score, LS adjusted mean (5 mg, Week 12): −0.5993 | Relative change (% from baseline) in weekly weighted score, LS adjusted mean (5 mg, week 4): −0.4262 | LS adjusted mean change from baseline in Hot Flush Weekly Weighted Score (10 mg E4, week 4): −85.56 | LS adjusted mean change from baseline in Hot Flush Weekly Weighted Score (10 mg E4, week 12): −109.8 | Mean change from baseline in Hot Flush Weekly Weighted Score (10 mg E4 QD per os, week 0): 2.3773 | Mean change from baseline in Hot Flush Weekly Weighted Score (10 mg E4 QD per os, week 1): −31.4591 | Relative change (% from baseline) in Hot Flush Weekly Weighted Score, mean (10 mg E4 QD per os, week 1): −20% | Mean change from baseline in Hot Flush Weekly Weighted Score (10 mg E4 QD per os, week 2): −54.0849 | Relative change (% from baseline) in Hot Flush Weekly Weighted Score, mean (10 mg E4 QD per os, week 2): −35% | Mean change from baseline in Hot Flush Weekly Weighted Score (10 mg E4 QD per os, week 3): −73.5189 | Relative change (% from baseline) in Hot Flush Weekly Weighted Score, mean (10 mg E4 QD per os, week 3): −47% | Mean change from baseline in Hot Flush Weekly Weighted Score (10 mg E4 QD per os, week 4): −87.2673 | Relative change (% from baseline) in Hot Flush Weekly Weighted Score, mean (10 mg E4 QD per os, week 4): −54% | Mean change from baseline in Hot Flush Weekly Weighted Score (10 mg E4 QD per os, week 5): −93.4648 | Relative change (% from baseline) in Hot Flush Weekly Weighted Score, mean (10 mg E4 QD per os, week 5): −58% | Mean change from baseline in Hot Flush Weekly Weighted Score (10 mg E4 QD per os, week 6): −101.646 | Relative change (% from baseline) in Hot Flush Weekly Weighted Score, mean (10 mg E4 QD per os, week 6): −64% | Mean change from baseline in Hot Flush Weekly Weighted Score (10 mg E4 QD per os, week 7): −103.024 | Relative change (% from baseline) in Hot Flush Weekly Weighted Score, mean (10 mg E4 QD per os, week 7): −64% | Mean change from baseline in Hot Flush Weekly Weighted Score (10 mg E4 QD per os, week 8): −104.835 | Relative change (% from baseline) in Hot Flush Weekly Weighted Score, mean (10 mg E4 QD per os, week 8): −66% | Mean change from baseline in Hot Flush Weekly Weighted Score (10 mg E4 QD per os, week 9): −107.578

Reference: patent US11484539B2, “Compounds and their uses for alleviating menopause-associated symptoms” (Estetra SPRL, priority 2018, dated 2022)
